Measured values reported in ChEMBL document CHEMBL4402526, “Design and Synthesis of Fungal-Selective Resorcylate Aminopyrazole Hsp90 Inhibitors” (J Med Chem, 2020).
Active and inactive are the calls of the source. The rule behind the calls is not given here.

Tests used:
Cryptococcus neoformans = assay: Antifungal activity against Cryptococcus neoformans H99 assessed as fungal growth inhibition at <= […] uM measured after 48 hrs by resazurin assay; format: functional, organism-based
Candida albicans = assay: Antifungal activity against Candida albicans clinical isolate 2 assessed as fungal growth inhibition at <= […] uM measured after 48 hrs by resazurin assay; format: functional, organism-based

Row | SMILES | Activity (Cryptococcus neoformans) | Activity (Candida albicans)
1 | Cc1ccccc1-c1cc(Nc2cc(O)cc(O)c2C(=O)N2Cc3cccnc3C2)n(C)n1 | Active | Active
2 | Cn1nc(-c2ccccc2)cc1Nc1cc(O)cc(O)c1C(=O)N1Cc2ccccc2C1 | Active | Active
3 | COc1ccc(Cn2nc(C)cc2Nc2cc(O)cc(O)c2C(=O)N2Cc3cn[nH]c3C2)cc1 | Active | Active
4 | COc1ccc(-c2cc(Nc3cc(O)cc(O)c3C(=O)N3Cc4cccnc4C3)n(C)n2)cc1 | Active | Active
5 | CC(C)n1nccc1Nc1cc(O)cc(O)c1C(=O)N1Cc2ccccc2C1 | Active | Active
6 | CC(C)c1ccc(Cn2nccc2Nc2cc(O)cc(O)c2C(=O)N2Cc3cccnc3C2)cc1 | Active | Active
7 | COc1ccc(Cn2nc(-c3ccoc3)cc2Nc2cc(O)cc(O)c2C(=O)N2Cc3cccnc3C2)cc1 | Active | Active
8 | CCc1cc(Nc2cc(O)cc(O)c2C(=O)N2Cc3cccnc3C2)n(Cc2ccc(OC)cc2)n1 | Active | Active
9 | O=C(c1c(O)cc(O)cc1Nc1ccnn1Cc1cccnc1)N1Cc2cn[nH]c2C1 | Active | Active
10 | Cn1nc(-c2cccc(C(F)(F)F)c2)cc1Nc1cc(O)cc(O)c1C(=O)N1Cc2cccnc2C1 | Active | Active
11 | Cc1ccc(Cn2nc(C)cc2Nc2cc(O)cc(O)c2C(=O)N2Cc3ccccc3C2)cc1 | Active | Active
12 | Cn1nc(-c2ccccc2)cc1Nc1cc(O)cc(O)c1C(=O)N1Cc2cccnc2C1 | Active | Active
13 | O=C(c1c(O)cc(O)cc1Nc1cc(-c2ccccc2)nn1C1CCCCC1)N1Cc2cccnc2C1 | Active | Active
14 | O=C(c1c(O)cc(O)cc1Nc1ccnn1Cc1ccco1)N1Cc2ccccc2C1 | Active | Active
15 | COc1ccc(Cn2nc(C)cc2Nc2cc(O)cc(O)c2C(=O)N2Cc3ccccc3C2)cc1 | Active | Active
16 | Cc1ccccc1-c1cc(Nc2cc(O)cc(O)c2C(=O)N2Cc3cn[nH]c3C2)n(C)n1 | Active | Active
17 | CC(C)Cn1nccc1Nc1cc(O)cc(O)c1C(=O)N1Cc2cn[nH]c2C1 | Active | Active
18 | Cc1cccc(-c2cc(Nc3cc(O)cc(O)c3C(=O)N3Cc4ccccc4C3)n(C)n2)c1 | Active | Active

Row | SMILES | Activity (Cryptococcus neoformans) | Activity (Candida albicans)
19 | COc1ccc(Cn2nc(-c3ccccc3)cc2Nc2cc(O)cc(O)c2C(=O)N2Cc3cccc(F)c3C2)cc1 | Active | Active
20 | CC(C)Cn1nc(-c2ccccc2)cc1Nc1cc(O)cc(O)c1C(=O)N1Cc2cccnc2C1 | Active | Active
21 | Cn1nc(-c2cccc(C(F)(F)F)c2)cc1Nc1cc(O)cc(O)c1C(=O)N1Cc2ccccc2C1 | Active | Active
22 | COc1ccc(Cn2nc(C)cc2Nc2cc(O)cc(O)c2C(=O)N2Cc3cccnc3C2)cc1 | Active | Active
23 | COc1ccc(Cn2nc(C)cc2Nc2cc(O)cc(O)c2C(=O)N2Cc3ccc(N4CCN(C)CC4)cc3C2)cc1 | Active | Active
24 | COc1ccc(Cn2nc(-c3ccccc3)cc2Nc2cc(O)cc(O)c2C(=O)N2Cc3cccnc3C2)cc1 | Active | Active
25 | CC(C)n1nccc1Nc1cc(O)cc(O)c1C(=O)N1Cc2cccnc2C1 | Active | Active
26 | O=C(c1c(O)cc(O)cc1Nc1ccnn1-c1ccccc1)N1Cc2ccccc2C1 | Active | Active
27 | O=C(c1c(O)cc(O)cc1Nc1ccnn1Cc1ccco1)N1Cc2cn[nH]c2C1 | Active | Active
28 | COc1ccc(Cn2nc(-c3ccccc3)cc2Nc2cc(O)cc(O)c2C(=O)N2CCCC2)cc1 | Active | Active
29 | Cn1nc(-c2cccc(C(F)(F)F)c2)cc1Nc1cc(O)cc(O)c1C(=O)N1Cc2cn[nH]c2C1 | Active | Active
30 | CC(C)c1cc(Nc2cc(O)cc(O)c2C(=O)N2Cc3cn[nH]c3C2)n(C)n1 | Active | Active
31 | O=C(c1c(O)cc(O)cc1Nc1ccnn1Cc1ccc(C(F)(F)F)cc1)N1Cc2cn[nH]c2C1 | Active | Active
32 | O=C(c1c(O)cc(O)cc1Nc1ccnn1C1CCCCC1)N1Cc2cccnc2C1 | Active | Active
33 | Cn1nccc1Nc1cc(O)cc(O)c1C(=O)N1Cc2ccccc2C1 | Active | Active
34 | Cn1nc(-c2ccc(C(F)(F)F)cc2)cc1Nc1cc(O)cc(O)c1C(=O)N1Cc2cccnc2C1 | Active | Active
35 | O=C(c1c(O)cc(O)cc1Nc1ccnn1Cc1ccccc1)N1Cc2cn[nH]c2C1 | Active | Active
